Laboratory results reported in patent publication US7319103B2, “Non-imidazole tertiary amines as histamine 3 receptor inhibitors for the treatment of cognitive and sleep disorders, obesity and other CNS disorders” (Athersys, Inc., priority 2004, dated 2008).
pKi: −log10 of the molar value.

Key:
human H3 receptor = molecular target: T1, human H3 receptor (Homo sapiens, UniProt Q9Y5N1); assay: Radioligand competition binding assay, human H3 receptor (HT1080 cell membranes); conditions: competition binding vs [3H]Nα-methylhistamine (~2 nM), membranes of HT1080 cells expressing human H3 receptor
T1 construct: Expression of this receptor was provided by utilization of the RAGE methodology; endogenous in cells; host or cells: HT1080 (human fibrosarcoma) cells, H3 expression switched on by RAGE; co-transfected with chimeric G-protein Gqαi5
T1 sequence (Q9Y5N1 whole entry): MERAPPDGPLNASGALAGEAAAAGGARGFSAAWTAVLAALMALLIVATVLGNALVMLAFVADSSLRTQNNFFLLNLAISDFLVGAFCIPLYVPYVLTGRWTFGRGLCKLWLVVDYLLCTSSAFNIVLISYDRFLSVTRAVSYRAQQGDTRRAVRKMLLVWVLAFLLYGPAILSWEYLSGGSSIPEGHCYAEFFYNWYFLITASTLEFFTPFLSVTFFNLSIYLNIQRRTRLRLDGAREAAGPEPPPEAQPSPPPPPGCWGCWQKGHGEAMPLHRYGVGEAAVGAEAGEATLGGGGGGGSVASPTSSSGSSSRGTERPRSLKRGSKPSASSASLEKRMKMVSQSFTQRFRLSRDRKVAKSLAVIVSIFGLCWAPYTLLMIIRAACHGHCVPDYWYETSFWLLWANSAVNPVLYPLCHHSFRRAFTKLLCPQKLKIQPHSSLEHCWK
Description: (§1) Representative compounds of the present invention that were prepared by the procedures of the Examples were evaluated in binding assays against cells expressing the mouse and human H3 receptor by the following procedure.
An HT1080 cell line was produced that expresses the human H3 receptor. Expression of this receptor was provided by utilization of the RAGE methodology (Harrington et al., 2001) Nature Biotechol. 19:440-5. This cell line was transfected with the chimeric G-protein Gqαi5 (Conklin et al., 1993) Nature 363:274-6 to facilitate assessment of receptor activation through the analysis of intercellular Ca^++ levels using a fluorescence assay. The HT1080 cells expressing human histamine H3 receptor and Gqαi5 were grown in alpha-modified MEM containing 10% FBS, 3 ug/ml puromycin, 7 ug/ml blasticidin, and 3.2 uM methotrexate at 37° C. in 5% CO2/95% atmosphere.
(§2) Cells were washed with cold PBS buffer twice, scraped off the plates, and centrifuged at 1000×g for 5 minutes. Cells were resuspended in ice-cold buffer of 10 mM Tris, pH 7.4, 5 mM EDTA, protease inhibitor cocktail tablets (Roche Molecular Biochemicals) and incubated on ice for 10 minutes. The mixture was then homogenized with a dounce homogenizer or a polytron tissue grinder and centrifuged at 1000×g for 10 min at 4° C. The supernatant was centrifuged at 32,000×g for 30 min at 4° C. The membrane pellet was resuspended in a buffer of 50 mM Tris, pH 7.4 with protease inhibitor cocktail tablets and stored at −80° C. until use. Protein concentration was determined by the methods of Bradford.
(§3) Membranes were homogenized in buffer containing 50 mM Tris/HCl, 1 mM EDTA pH 7.4, and protease inhibitor cocktail tablets. Dissociation constants of radioligand (KD values) and maximum binding sites (Bmax) were determined in saturation binding experiments. Ki and IC50 were determined in competition binding assays using a fixed amount of radioligand.
(§4) Saturation binding assays were carried out in 96-well polypropylene plates in triplicate or quadruplicate. Reaction mixtures contained 100 μl of membrane suspension (˜100 μg/well), 50 μl of 4% DMSO, 50 μl of increasing amounts of [^3H]N^α-methylhistamine (final concentration of 0.01-20 nM). Nonspecific binding was defined with 10 uM clobenpropit. Competition binding assays were performed in a reaction mixture containing 100 μl of membrane suspension, 50 μl of [H]N^α-methylhistamine (final concentration of ˜2 nM), and 50 μl compounds. […] Incubations were carried out for 1.5 hours at room temperature. Reactions were terminated by rapid filtration over glass fibre GF/C filters (Perkin Elmers, MA) that had been presoaked in 0.3% PEI, using a Brandel cell harvester. The filters were washed with 500 ml of ice-cold buffer containing 50 mM Tris-HCl, pH 7.4, and were subsequently dried, impregnated with Meltilex wax scintillate (Perkin Elmers, MA) and counted with a Betaplate scintillation counter (Perkin Elmers, MA).
(§5) All data were analyzed by nonlinear least square curve fitting using Prism 4.0 software. The KD for [^3H]N^α-methylhistamine and the Bmax were derived from equation RL=RfL/(KD+L). RL is concentration of receptor-bound ligand at equilibrium, L is the free ligand concentration, Rf is the total receptor concentration. For competition binding experiments, IC50 (the concentration of compound producing 50% inhibition of specific binding) was derived from fitting to a 4-parameter logistic equation. Apparent Ki values were calculated using the Cheng-Prussof equation of Ki=IC50/(1+(L)/Kd), L is the ligand concentration. Agonist stimulation and antagonist inhibition in FLIPR were fitted to sigmoidal dose response using equation Y=Bottom+(Top-Bottom)/(1+10^((LogEC50-X))), X is the logarithm of concentration of compounds. Y is the response.

mouse H3 receptor = mouse H3 receptor (Mus musculus, UniProt P58406); assay: Radioligand competition binding assay, mouse H3 receptor; conditions: competition binding vs [3H]Nα-methylhistamine (~2 nM), membranes of cells expressing mouse H3 receptor
Sequence of mouse H3 receptor (P58406 whole entry): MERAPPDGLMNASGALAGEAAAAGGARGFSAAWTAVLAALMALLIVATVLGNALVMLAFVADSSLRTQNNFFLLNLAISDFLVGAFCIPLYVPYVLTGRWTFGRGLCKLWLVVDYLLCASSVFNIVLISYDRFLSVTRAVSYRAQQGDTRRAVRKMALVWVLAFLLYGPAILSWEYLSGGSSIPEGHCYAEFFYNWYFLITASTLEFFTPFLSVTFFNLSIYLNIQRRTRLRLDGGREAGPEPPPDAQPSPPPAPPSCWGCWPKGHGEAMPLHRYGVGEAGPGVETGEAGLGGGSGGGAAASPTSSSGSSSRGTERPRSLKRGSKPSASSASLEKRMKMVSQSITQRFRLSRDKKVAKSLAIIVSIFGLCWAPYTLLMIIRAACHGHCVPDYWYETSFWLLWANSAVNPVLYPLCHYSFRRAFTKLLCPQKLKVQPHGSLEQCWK
Description: as §1, §2, §3, §4, §5

Compound: CC1CCCN1CCCOc1ccc(-c2c3c(nc4ccnn24)CCCC3)cc1 (centres unmarked) [9-{4-[3-(2-Methyl-pyrrolidin-1-yl)-propoxy]-phenyl}-5,6,7,8-tetrahydro-pyrazolo[5,1-b]quinazoline]
- pKi (human H3 receptor): > 7.30
- pKi (mouse H3 receptor): > 7.30

Compound: c1cc(OCCCN2CCCCC2)cc(-c2c3c(nc4ccnn24)CCCCC3)c1 [10-[3-(3-Piperidin-1-yl-propoxy)-phenyl]-6,7,8,9-tetrahydro-5H-1,4,10a-triaza-cyclohepta[f]indene]
- pKi (human H3 receptor): > 6.30
- pKi (mouse H3 receptor): > 5.30

Compound: c1cc(OCCCN2CCCC2)cc(-c2c3c(nc4ccnn24)CCCCC3)c1 [10-[3-(3-Pyrrolidin-1-yl-propoxy)-phenyl]-6,7,8,9-tetrahydro-5H-1,4,10a-triaza-cyclohepta[f]indene]
- pKi (human H3 receptor): > 6.30
- pKi (mouse H3 receptor): > 5.30

Compound: c1cc2nc3c(c(-c4ccc(OCCCN5CCCCC5)cc4)n2n1)CCCCC3 [10-[4-(3-Piperidin-1-yl-propoxy)-phenyl]-6,7,8,9-tetrahydro-5H-1,4,10a-triaza-cyclohepta[f]indene]
- pKi (human H3 receptor): > 7.30
- pKi (mouse H3 receptor): > 7.30

Compound: C[C@@H]1CC[C@@H](C)N1CCCOc1ccc(-c2c3c(nc4ccnn24)CCCCC3)cc1 [10-{4-[3-(2,5-(R,R)-Dimethyl-pyrrolidin-1-yl)-propoxy]-phenyl}-6,7,8,9-tetrahydro-5H-1,4,10a-triaza-cyclohepta[f]indene]
- pKi (human H3 receptor): > 7.30
- pKi (mouse H3 receptor): > 6.30

Compound: C[C@@H]1CCCN1CCCOc1ccc(-c2c3c(nc4ccnn24)CCCCC3)cc1 [10-{4-[3-(2-(R)-Methyl-pyrrolidin-1-yl)-propoxy]-phenyl}-6,7,8,9-tetrahydro-5H-1,4,10a-triaza-cyclohepta[f]indene]
- pKi (human H3 receptor): > 7.30
- pKi (mouse H3 receptor): > 7.30

Compound: CC1CCCN1CCCOc1ccc(-c2c3c(nc4ccnn24)CCCCC3)cc1 (centres unmarked) [10-{4-[3-(2-Methyl-pyrrolidin-1-yl)-propoxy]-phenyl}-6,7,8,9-tetrahydro-5H-1,4,10a-triaza-cyclohepta[f]indene]
- pKi (human H3 receptor): > 7.30
- pKi (mouse H3 receptor): > 7.30

Compound: c1ccc2c(-c3ccc(OCCCN4CCCC4)cc3)c3c(nc2c1)CCCCC3 [11-[4-(3-Pyrrolidin-1-yl-propoxy)-phenyl]-7,8,9,10-tetrahydro-6H-cyclohepta[b]quinoline]
- pKi (human H3 receptor): > 7.30
- pKi (mouse H3 receptor): > 6.30

Compound: CN(C)[C@@H]1CCN(CCc2cc3cc(-c4c5c(nc6ccnn46)CCC5)ccc3o2)C1 [(1-{2-[5-(6,7-Dihydro-5H-1,4,8a-triaza-s-indacen-8-yl)-benzofuran-2-yl]-ethyl}-pyrrolidin-3-yl)-(R)-dimethyl-amine]
- pKi (human H3 receptor): > 6.30
- pKi (mouse H3 receptor): > 6.30

Compound: CCN(CC)CCCOc1ccc(-c2c3c(nc4ccnn24)CCCCC3)cc1 [Diethyl-{3-[4-(6,7,8,9-tetrahydro-5H-1,4,10a-triaza-cyclohepta[f]inden-10-yl)-phenoxy]-propyl}-amine]
- pKi (human H3 receptor): > 7.30
- pKi (mouse H3 receptor): > 6.30

Compound: CN(C)CCCOc1ccc(-c2c3c(nc4ccnn24)CCCC3)cc1 [Dimethyl-{3-[4-(5,6,7,8-tetrahydro-pyrazolo[5,1-b]quinazolin-9-yl)-phenoxy]-propyl}-amine]
- pKi (human H3 receptor): > 7.30
- pKi (mouse H3 receptor): > 6.30

Compound: CN(CCCOc1ccc(-c2c3c(nc4ccnn24)CCCCC3)cc1)Cc1ccco1 [Furan-2-ylmethyl-methyl-{3-[4-(6,7,8,9-tetrahydro-5H-1,4,10a-triaza-cyclohepta[f]inden-10-yl)-phenoxy]-propyl}-amine]
- pKi (human H3 receptor): > 5.30
- pKi (mouse H3 receptor): > 6.30

Compound: CN(C)CCCOc1ccc(-c2c3c(nc4ccnn24)CCC3)cc1 [{3-[4-(6,7-Dihydro-5H-1,4,8a-triaza-s-indacen-8-yl)-phenoxy]-propyl}-dimethyl-amine]
- pKi (human H3 receptor): > 7.30
- pKi (mouse H3 receptor): > 6.30
